Measurements reported in patent US20100075907A1, “NEUROMEDIN U RECEPTOR AGONISTS AND USES THEREOF” (priority 2006, published 2010).
Starred links: 1 amine or outer side, 2 acyl side, 3 side chain; linkers in the order of their positions; H or OH if unused. Non-standard residues stand in square brackets, D forms with d. Residues, ends and D or L forms follow the SMILES beside them. *: point of attachment. X2 = CCN1C(=O)CC(SC[C@H](NC(C)=O)C(=O)NCCCOCCOCCOCCCN*)C1=O; Succinimide(1-Et,3-yl) = CCN1C(=O)CC(*)C1=O; Palmitoyl = CCCCCCCCCCCCCCCC(=O)*; Suc = O=C(CCC(=O)[*:2])[*:1]

Legend:
hNMUR2 = hNMUR2 (Homo sapiens, UniProt Q9GZQ4); assay: 125I-hNMU-25 binding assay, human NMUR2 membranes; set-up: expressed in transfected cells; host or cells: HEK-293 FLP-In cells (pcDNA5); HEK-293/aeq17 lines (pcDNA3.1) were also made; % inhibition of NMU-25 binding / % Activity: concentration or dose not given beside the values
Method: Confluent cell monolayers expressing NMU receptors (the HEK cells described above) were harvested with phosphate buffered saline, collected by centrifugation, and resuspended in membrane buffer (50 mM TrisCl pH 7.4, 5 mM MgCl2, 1× Protease Inhibitor Cocktail, 10 μM phosphoramidon). After the cell pellet was homogenized, the solution was centrifuged at 18,000 rpm for 20 minutes at 4° C. The pellet was resuspended in membrane buffer to yield a final concentration of 0.5-5 μg/μL of membrane and stored at −80° C.
Experiments were performed in assay buffer (25 mM TrisCl, pH 7.4, 10 mM MgCl2, 2 mM EDTA, 1× Protease Inhibitor Cocktail, 100 μg/mL Bacitricin, 10 μM phosphoramidon) in 200 μL volumes in a 96-well format using 2-5 μg of membrane and 0.1 nM ^125I-hNMU-25 (about 12,000 cpm/well). For non-specific binding, 1 μM hNMU-25 was added. About 5 μL of peptides were added to measure antagonist activity, and the entire reaction was incubated at room temperature with shaking for 80 minutes. The reaction was terminated by rapid filtration through 0.3% poly-ethylenimine presoaked Millipore 96-well filter plates and washed with ice-cold buffer (5 mM TrisCl pH 7.4, 10 mM MgCl2, 2.5 mM EDTA, 0.04% Triton X-100). Plates were air-dried overnight at room temperature and recovered radioactivity was determined by standard scintillation counting. IC50 values were determined using GraphPad Prism software.
Concentration-response curves and radioligand-binding data were fitted using Prism (GraphPad Software). Results are summarized below in Tables 8 and 9.

rat NMUR1-TTG = molecular target: T1, rat NMUR1-TTG (Rattus norvegicus, UniProt Q9JJI5); assay: FLIPR calcium mobilization assay, rat NMUR1-TTG; assay type: cell-based; set-up: expressed in transfected cells; host or cells: FLP-In CHO or HEK-293 FLP-In cells (pcDNA5); settings: for EC50: FLIPR
T1 sequence (Q9JJI5 1-425): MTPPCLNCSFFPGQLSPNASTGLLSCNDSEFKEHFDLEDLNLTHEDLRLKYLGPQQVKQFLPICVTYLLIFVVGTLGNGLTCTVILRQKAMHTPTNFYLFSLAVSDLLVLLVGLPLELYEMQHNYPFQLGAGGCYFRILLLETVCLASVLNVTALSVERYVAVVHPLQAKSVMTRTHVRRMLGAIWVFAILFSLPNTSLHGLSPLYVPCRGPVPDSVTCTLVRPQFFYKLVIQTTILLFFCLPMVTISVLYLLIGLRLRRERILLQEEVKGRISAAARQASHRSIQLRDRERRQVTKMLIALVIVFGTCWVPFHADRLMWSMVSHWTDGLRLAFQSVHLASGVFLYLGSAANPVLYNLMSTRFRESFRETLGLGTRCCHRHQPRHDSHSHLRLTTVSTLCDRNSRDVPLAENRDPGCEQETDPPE
Excerpt: Human, mouse or rat cDNAs encoding NMUR1 or NMUR2 (as described in Howard et al. Nature 406: 70-74 (2000) were subcloned in pcDNA5 (Invitrogen) and transfected into FLP-In CHO cells and HEK-293 FLP-In cells purchased from Invitrogen (Carlsbad, Calif.) using lipofectamine (Invitrogen). The Flp-In system allows integration and expression of a particular gene of interest at a specific genomic location utilizing the Flp recombinase from yeast. The transfected cells were selected by growth in medium containing 200 μg/mL hygromycin (Invitrogen). Populations were frozen at early passage numbers, and these stocks were used for further studies. Stable clones that expressed the mRNAs were identified functionally by FLIPR as well as by RT-PCR. […] Two different rodent NMUR1 cell lines were thus generated: one with the codon as predicted from the genomic databases and another cell line with an engineered methionine (ATG) as the start codon. Additionally, stable cell lines expressing the human receptors were generated in HEK-293/aeq17 cells which stably express the aequorin gene under the CMV promoter. The human NMUR2 cDNA was cloned into pcDNA3.1 and human NMUR1 was subcloned into pIRES-puro (Clontech, Mountain View, Calif.), after transfection cells were selected in media containing G418 and either hygromycin (NMUR2) or puromycin (NMUR1).
The NMU receptors signal primarily through Gαq/11 proteins; therefore calcium mobilization assays can be utilized for functional activity.
Stable cell lines expressing human and or rodent NMUR1 or human NMUR2 receptors were plated at a density of 12,000 cells per well overnight on poly-lysine coated 384-well black-walled plates. The following day, the media was removed from the plates and the cells were subsequently loaded with Fluo-3 (Molecular Probes), a calcium sensitive dye, diluted in FLIPR buffer (1× Hank's buffered saline containing 20 mM HEPES, 0.1% BSA, 2.5 mM probenecid (Sigma) and 1.6 mM TR40). All reagents are from Invitrogen unless otherwise noted. Peptide stocks were resuspended in DMSO at a stock concentration of 2 mM and diluted in FLIPR buffer on the day of the experiment to a 4 μM working stock solution.
After a 90 minute incubation at room-temperature, cell plates were loaded onto a FLIPR (Molecular Devices) to monitor cellular fluorescence (excitation=488 nm; emission=540 nm) before and after compound/peptide addition. Eight to twelve point dose responses were tested on NMUR-expressing cell lines using FLIPR with 1 μM peptide as the highest dose. The response after peptide addition was taken as the maximum fluorescence units minus the fluorescence immediately prior to stimulation for each well. EC50 values were calculated using GraphPad Prism (San Diego, Calif.) software.
In vitro responses of Neuromedin U receptor agonists (NMU1 to NMU25) in the FLIPR assay for human (Table 3), mouse (Table 4) and rat (Table 5) NMUR1 and NMUR2. EC50s are reported in nM values. Percent activity refers to the maximum response at 1 μM compared to the hNMU-25 response at the same concentration. NT=not tested.

[1] = maximum response at 1 μM compared to hNMU-25, rat NMUR1-TTG

hNMUR2, sequence (Q9GZQ4 whole entry): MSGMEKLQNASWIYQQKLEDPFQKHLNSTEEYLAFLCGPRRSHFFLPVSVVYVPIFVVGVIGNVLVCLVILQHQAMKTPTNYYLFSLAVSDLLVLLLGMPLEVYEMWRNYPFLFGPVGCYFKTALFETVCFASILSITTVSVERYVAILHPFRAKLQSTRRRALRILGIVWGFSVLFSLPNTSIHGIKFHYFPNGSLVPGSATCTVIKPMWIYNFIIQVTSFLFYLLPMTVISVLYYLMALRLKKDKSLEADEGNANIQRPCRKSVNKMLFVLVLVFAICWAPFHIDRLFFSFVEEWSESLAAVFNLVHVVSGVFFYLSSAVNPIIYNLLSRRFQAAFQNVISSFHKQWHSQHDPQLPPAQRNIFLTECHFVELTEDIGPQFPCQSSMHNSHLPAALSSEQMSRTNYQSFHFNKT

Compound | % Activity (rat NMUR1-TTG; [1]) | EC50 (rat NMUR1-TTG; rat NMUR1-TTG) | further results
CC(C)C[C@@H](NC(=O)[C@H](Cc1ccccc1)NC(=O)[C@H](Cc1ccc(O)cc1)NC(=O)CNC(=O)[C@H](CCCNC(=N)N)NC(=O)[C@H](CO)NC(=O)[C@H](CCC(N)=O)NC(=O)[C@H](CO)NC(=O)[C@H](C)NC(=O)[C@H](Cc1ccccc1)NC(=O)[C@@H]1CCCN1C(=O)[C@H](CO)NC(=O)[C@H](CCC(N)=O)NC(=O)[C@H](Cc1ccccc1)NC(=O)[C@H](CCC(=O)O)NC(=O)[C@H](CCC(=O)O)NC(=O)[C@H](CC(=O)O)NC(=O)[C@@H](NC(=O)[C@H](CCCNC(=N)N)NC(=O)[C@@H](N)Cc1ccccc1)C(C)C)C(=O)N[C@@H](Cc1c[nH]c2ccccc12)C(=O)N[C@@H](CCCNC(=N)N)C(=O)N1CCC[C@H]1C(=O)N[C@@H](CCCNC(=N)N)C(=O)N[C@@H](CC(N)=O)C(N)=O [Agonist H] (H-FRVDEEFQSPFASQSRGYF[dL]WRPRN-NH2; N-terminus assumed) |  |  | % Activity (hNMUR2; Table 8, HEK-hR2, binding): 7%; IC50 (hNMUR2; binding, human R2): 0.782 µM; % inhibition of NMU-25 binding (hNMUR2; human R2): 7%; % Activity (rat NMUR1-TTG; functional, rat R1-TTG, relative to native hNMU responses): 91%
CCN1C(=O)CC(SC[C@H](NC(C)=O)C(=O)NCCCOCCOCCOCCCNC(=O)CCC(=O)N[C@@H](Cc2ccccc2)C(=O)N[C@@H](CC(C)C)C(=O)N[C@@H](Cc2ccccc2)C(=O)N[C@@H](CCCNC(=N)N)C(=O)N2CCC[C@H]2C(=O)N[C@@H](CCCNC(=N)N)C(=O)N[C@@H](CC(N)=O)C(N)=O)C1=O (stereo partly shown) [NMU15, Ac-C1-Ttds-FLFRPRN-CONH2] ({X2-Suc}-FLFRPRN-NH2) | 107.5% |  | 
CCN1C(=O)CC(SC[C@H](NC(C)=O)C(=O)N[C@@H](C)C(=O)N[C@@H](CO)C(=O)N[C@@H](CCC(N)=O)C(=O)N[C@@H](CO)C(=O)N[C@@H](CCCNC(=N)N)C(=O)NCC(=O)N[C@@H](Cc2ccc(O)cc2)C(=O)N[C@@H](Cc2ccccc2)C(=O)N[C@@H](CC(C)C)C(=O)N[C@@H](Cc2ccccc2)C(=O)N[C@@H](CCCNC(=N)N)C(=O)N2CCC[C@H]2C(=O)N[C@@H](CCCNC(=N)N)C(=O)N[C@@H](CC(N)=O)C(N)=O)C1=O (stereo partly shown) [NMU17] (Ac-C(Succinimide(1-Et,3-yl))ASQSRGYFLFRPRN-NH2) | 105.3% |  | 
CCN1C(=O)CC(SC[C@H](NC(C)=O)C(=O)N[C@@H](Cc2ccccc2)C(=O)N[C@@H](CCC(N)=O)C(=O)N[C@@H](CO)C(=O)N2CCC[C@H]2C(=O)N[C@@H](Cc2ccccc2)C(=O)N[C@@H](C)C(=O)N[C@@H](CO)C(=O)N[C@@H](CCC(N)=O)C(=O)N[C@@H](CO)C(=O)N[C@@H](CCCNC(=N)N)C(=O)NCC(=O)N[C@@H](Cc2ccc(O)cc2)C(=O)N[C@@H](Cc2ccccc2)C(=O)N[C@@H](CC(C)C)C(=O)N[C@@H](Cc2ccccc2)C(=O)N[C@@H](CCCNC(=N)N)C(=O)N2CCC[C@H]2C(=O)N[C@@H](CCCNC(=N)N)C(=O)N[C@@H](CC(N)=O)C(N)=O)C1=O (stereo partly shown) [NMU19] (Ac-C(Succinimide(1-Et,3-yl))FQSPFASQSRGYFLFRPRN-NH2) | 100% |  | 
CCN1C(=O)CC(SC[C@H](NC(C)=O)C(=O)N[C@@H](CSC2CC(=O)N(CC)C2=O)C(=O)N[C@@H](Cc2ccccc2)C(=O)N[C@@H](CCCNC(=N)N)C(=O)N[C@H](C(=O)N[C@@H](CC(=O)O)C(=O)N[C@@H](CCC(=O)O)C(=O)N[C@@H](CCC(=O)O)C(=O)N[C@@H](Cc2ccccc2)C(=O)N[C@@H](CCC(N)=O)C(=O)N[C@@H](CO)C(=O)N2CCC[C@H]2C(=O)N[C@@H](Cc2ccccc2)C(=O)N[C@@H](C)C(=O)N[C@@H](CO)C(=O)N[C@@H](CCC(N)=O)C(=O)N[C@@H](CO)C(=O)N[C@@H](CCCNC(=N)N)C(=O)NCC(=O)N[C@@H](Cc2ccc(O)cc2)C(=O)N[C@@H](Cc2ccccc2)C(=O)N[C@@H](CC(C)C)C(=O)N[C@@H](Cc2ccccc2)C(=O)N[C@@H](CCCNC(=N)N)C(=O)N2CCC[C@H]2C(=O)N[C@@H](CCCNC(=N)N)C(=O)N[C@@H](CC(N)=O)C(N)=O)C(C)C)C1=O (stereo partly shown) [NMU22] (Ac-C(Succinimide(1-Et,3-yl))C(Succinimide(1-Et,3-yl))FRVDEEFQSPFASQSRGYFLFRPRN-NH2) | 96.4% |  | 
CCCCCCCCCCCCCCCC(=O)N[C@@H](CSC1CC(=O)N(CC)C1=O)C(=O)N[C@@H](Cc1ccccc1)C(=O)N[C@@H](CCCNC(=N)N)C(=O)N[C@H](C(=O)N[C@@H](CC(=O)O)C(=O)N[C@@H](CCC(=O)O)C(=O)N[C@@H](CCC(=O)O)C(=O)N[C@@H](Cc1ccccc1)C(=O)N[C@@H](CCC(N)=O)C(=O)N[C@@H](CO)C(=O)N1CCC[C@H]1C(=O)N[C@@H](Cc1ccccc1)C(=O)N[C@@H](C)C(=O)N[C@@H](CO)C(=O)N[C@@H](CCC(N)=O)C(=O)N[C@@H](CO)C(=O)N[C@@H](CCCNC(=N)N)C(=O)NCC(=O)N[C@@H](Cc1ccc(O)cc1)C(=O)N[C@@H](Cc1ccccc1)C(=O)N[C@@H](CC(C)C)C(=O)N[C@@H](Cc1ccccc1)C(=O)N[C@@H](CCCNC(=N)N)C(=O)N1CCC[C@H]1C(=O)N[C@@H](CCCNC(=N)N)C(=O)N[C@@H](CC(N)=O)C(N)=O)C(C)C (stereo partly shown) [NMU24] (Palmitoyl-C(Succinimide(1-Et,3-yl))FRVDEEFQSPFASQSRGYFLFRPRN-NH2) | 67.7% |  | 
Ac-C2FQSPFASQSRGYFLFRPRN-CONH2 ({Ac-C(PEG 40 kDa)}-FQSPFASQSRGYFLFRPRN-NH2; not fully specified; printed as Ac-C2FQSPFASQSRGYFLFRPRN-CONH2) [NMU20, C2 = Cys(PEG)240 kDa] | 93.8% | 0.0244 µM | 
Ac-C4-C4-FRVDEEFQSPFASQSRGYFLFRPRN-CONH2 ({Ac-C(PEG 20 kDa)-C(PEG 20 kDa)}-FRVDEEFQSPFASQSRGYFLFRPRN-NH2) [NMU23, C4 = Cys(PEG)20 kDa] | 39.8% |  | 
Ac-C4FRVDEEFQSPFASQSRGYFLFRPRN-CONH2 ({Ac-C(PEG 20 kDa)}-FRVDEEFQSPFASQSRGYFLFRPRN-NH2) [NMU21, C4 = Cys(PEG)20 kDa] | 77.5% | 0.22 µM | 
Pam-C2FRVDEEFQSPFASQSRGYFLFRPRN-CONH2 ({Palmitoyl-C(PEG 40 kDa)}-FRVDEEFQSPFASQSRGYFLFRPRN-NH2) [NMU25, Pam = palmitoyl; C2 = Cys(PEG)240 kDa] | 93.5% | 0.081 µM | 
